In assay [1] the test system is osteoporosis model (rat OVX). As to the kind of experiment: Osteoporosis model (rat OVX), Test 2: 4 weeks administration, compound A and alendronate. It counts as in vivo. Conditions: Test 2, OVX rats, 24 hour urine 5 weeks after the administration, EIA method (FIG. 7). The method, then:
(§1) Female SD rats of 16 weeks of age (Charles River Japan) were used in the test. Under anesthesia, both sides of ovaries were exposed, and ovaries of all groups excluding the sham operation group were ligated and extracted. In the sham operation group, only an operation of exposing ovaries to the outside of abdomen was carried out.
(§2) Preparation of the aforementioned model was carried out by referring to the method of Kalu et al., (Bone Miner., vol. 15, p. 175 (1991)) and the method of Frost et al., (Bone Miner., vol. 18, p. 227 (1992)).
Before carrying out the ovariectomy (OVX), bone mineral density of tibial metaphysis at 5 mm from the tibial proximal end was measured by pQCT. By leaving for 8 weeks after the OVX, significant reduction of the bone mineral density of tibial metaphysis was confirmed by re-measurement. […] After 4 weeks of the administration, the cortical bone thickness and bone mineral density of the tibial diaphysis were measured in the same manner as described in the above. In addition, urine samples were collected during 24 hours 5 weeks after the administration, and the urinary deoxypyridinoline was measured by an EIA method (Osteolinks “DPD”, mfd. by Sumitomo Pharmaceutical Biomedical). […]

In assay [2] the test system is osteoporosis model (rat OVX). As to the kind of experiment: Osteoporosis model (rat OVX), Test 1: 12 weeks administration, compound A and incadronate. It counts as in vivo. Conditions: for femoral bone strength (three-point bending test) / femoral cortical bone mineral density (pQCT) / femoral cortical bone thickness (pQCT): OVX rats, compound A 30 mg/kg twice a day oral, incadronate 1 mg/kg once a day oral; for femoral bone strength (three-point bending test): in comparison with Control Group 1 (FIG. 1); for femoral cortical bone mineral density (pQCT): in comparison with Control Group 1 (FIG. 2); for femoral cortical bone thickness (pQCT): in comparison with Control Group 1 (FIG. 3). The method, then: as §1, §2
Before carrying out the ovariectomy (OVX), bone mineral density at 5 mm from the tibial proximal end was measured by pQCT. By leaving for 8 weeks after the OVX, significant reduction of the bone mineral density was confirmed. […] The bone density was measured every 4 weeks after the administration, and urine samples were collected during 24 hours from the previous day of the completion of observation period. After completion of the urine collection, they were sacrificed by exsanguinations under ether anesthesia, and samples were collected.
Bone strength of the femoral diaphysis was measured by three-point bending test (TK-252c, mfd. by Muromachi Kikai). A femur was gently put on a supporting table of 20 mm in distance between supporting points, a bending load was applied on the midpoint of femur at a rate of 10 mm/min, and a load-deformation curve was recorded until its breakage. Maximum value of the load-deformation curve was used as the ultimate force, and the slope of the linear portion of the load-defomation curve was used as the stiffness.
Using a peripheral quantitative computed tomography (PQCT, XCT960A, mfd. by Norland-Stratec), cross-section of the bone was scaned, and bone mineral density and the like various parameters were calculated by analyzing the image.
As a bone metabolism marker, measurement of lysylpyridinoline (deoxypyridinoline hereinafter) value was carried out by SRL MediSearch using an HPLC method (Uebelhart, D et al., Bone Miner., vol. 8, p. 87 (1990)). In order to exclude influence of urine volume, the thus obtained deoxypyridinoline value was corrected by dividing the value by urine creatinine concentration or multiplying the 24 hour urine volume.
The compound of Production Example 93 (6-(4-fluoropiperidin-1-yl)-3-(6-methoxypyridin-2-yl)-1,2,4-triazolo[4,3-b]pyridazine: to be referred to as compound A hereinafter) which is a typical compound of the compound (I) was used as the non-living body-derived non-peptide osteoblast differentiation promoting compound of the invention, and incadronate (Bisphonal (registered trademark)) as the bisphosphonate, respectively. Groups in which the compound A or incadronate alone and a parathyroid hormone hPTH(1-34) are to be administered were used as comparative groups. In addition, the drug-non-administered OVX group and the sham operation group were used as control groups. The compound A was orally administered twice a day as a 0.5% methyl cellulose suspension of 30 mg/5 ml/kg, and incadronate was orally administered once a day as an aqueous solution of 1 mg/2.5 ml/kg. The hPTH(1-34) was subcutaneously administered once a day as a physiological saline solution of 3 μg/1 ml/kg. To the control groups was orally administered 0.5% methyl cellulose twice a day.

As to `COc1cccc(-c2nnc3ccc(N4CCC(F)CC4)nn23)n1` [compound A, 6-(4-fluoropiperidin-1-yl)-3-(6-methoxypyridin-2-yl)-1,2,4-triazolo[4,3-b]pyridazine], in assay [1], the “urinary deoxypyridinoline value (urine volume correction), bone resorption index” value is recorded as “increased”. Further, in assay [2], the “femoral bone strength (three-point bending test)” value is recorded as “increasing tendency”, the “femoral cortical bone mineral density (pQCT)” value is “increasing tendency” and the “femoral cortical bone thickness (pQCT)” value is listed as “increasing tendency”. Also, the “urinary deoxypyridinoline value (urine volume correction), bone resorption index” value in assay [2] (Test 1, OVX rats, 24 hour urine, HPLC method (FIG. 4)) was “increased”.
Take `O=P(O)(O)C(NC1CCCCCC1)P(=O)(O)O` [incadronate, reference compound]: in assay [2], the “femoral bone strength (three-point bending test)” value is “increasing tendency”, the “femoral cortical bone mineral density (pQCT)” value is “increasing tendency” and the “femoral cortical bone thickness (pQCT)” value is recorded as “increasing tendency”.
